For the assay, the system named is MCF7 cells (with/without FKBP12 V55G-HA; mTOR F2108L). The experiment in a line: Cell growth by CellTiter-Glo in MCF7 cells. The assay is classed as cell-based, human. Conditions: 72 h treatment. The procedure:
All cell lines were maintained in DMEM (Gibco) supplemented with 10% heat-inactivated FBS (Axenia Biologix) at 37 °C in 5% CO2. Flp-In T-REx 293 cells were obtained from Thermo Fisher supplemented with 15 µg/mL blasticin and 100 µg/mL Zeocin. Flp-In T-REx 293 FKBP12 V55G cells were supplemented with 15 µg/mL blasticin and 150 µg/mL hygromycin B. FKBP12 V55G expression was induced with 1 µg/mL doxycycline 24 h prior to drug treatments. MCF7 cells were obtained from ATCC (American Type Culture Collection), and MCF7 mTOR F2108L cells were described previously ([30]). When indicated, cells were treated with drugs at 60–80% confluency at a final DMSO concentration of 0.1%. At the end of the treatment period, cells were placed on ice and washed once with PBS. […] Lysate concentration was determined by Bradford assay (Thermo Fisher) and adjusted to 2 mg/mL with additional RIPA buffer. […]
Cells were seeded into 96-well tissue-culture treated plates (Greiner) and were allowed to incubate for 24 h. […] Cell viability was assessed by CellTiter-Glo (Promega). […] Luminescence was measured on a Tecan Spark 20M. […]
Human FKBP12 coding sequence was cloned a pET-47b bacterial expression vector using Gibson assembly and a C-terminal HA-tag was added by QuickChange PCR. FKBP12 proteins were expressed as 8xHis fusions in E. coli BL21 (DE3) cells. […]
Background: In ATP-based viability assays light output follows the ATP content of the culture.

Turning to `CCO/N=C1/C[C@@H]([C@H](C)C[C@@H]2CC[C@@H](O)[C@H](OC)C2)OC(=O)[C@@H]2CCCCN2C(=O)C(=O)[C@]2(O)O[C@@H](CC[C@H]2C)C[C@H](OC)/C(C)=C/C=C/C=C/[C@@H](C)C[C@@H](C)C(=O)[C@H](OC)[C@H](O)/C(C)=C/[C@H]1C` [Rapa*-3Z], the “Cell growth inhibition, MCF7 cells with and without FKBP12 V55G” value (CellTiter-Glo) is recorded as “activity was restricted to the mutant FKBP12-expressing cells”. Besides, the “Cell growth, MCF7 mTOR F2108L cells” value (rapamycin resistance mutation) is “had no effect on the growth of these cells”.

(Values after paper PMC9499525, “Tissue-restricted inhibition of mTOR using chemical genetics” (Proceedings of the National Academy of Sciences of the …, 2022).)
